Columns and labels:
Test in all cases: relative viability (nuclei count vs DMSO), 5 days (fraction); higher = more cells survive
[1] = compound: COC1=CC=C(C=C1)CN2C=CC3=C2C=C(C=C3)C(=O)NO + C[C@@H](Oc1cc(-c2cnn(C3CCNCC3)c2)cnc1N)c1c(Cl)ccc(F)c1Cl [Crizotinib] (partner 1 µM)
Summary of the method: (§1)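 Lung cancer cell lines, seeded in 1536-well plates, were treated the following day by pin tool with a single drug or with five library-drug doses (not always all listed) in √10 steps on top of a fixed anchor-drug dose. Cells were fixed and nuclei stained in one step after 5 days, and nuclei were counted. Relative viability is the nuclei count for treated wells divided by that for vehicle wells, reported as medians of duplicate plates.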

Veliparib + Tozasertib = compound: C[C@]1(c2nc3c(C(N)=O)cccc3[nH]2)CCCN1 [Veliparib] + Cc1cc(Nc2cc(N3CCN(C)CC3)nc(Sc3ccc(NC(=O)C4CC4)cc3)n2)n[nH]1 [Tozasertib] (partner 0.1 µM)
Summary of the method: as §1

[2] = compound: COC1=CC=C(C=C1)CN2C=CC3=C2C=C(C=C3)C(=O)NO + Nc1ncn([C@H]2C[C@H](O)[C@@H](CO)O2)c(=O)n1 [Decitabine] (partner 2 µM)
Summary of the method: as §1

Veliparib + Vorinostat = compound: C[C@]1(c2nc3c(C(N)=O)cccc3[nH]2)CCCN1 [Veliparib] + O=C(CCCCCCC(=O)Nc1ccccc1)NO [Vorinostat] (partner 1 µM)
Summary of the method: as §1

Cell Line	relative viability ([1]; first compound 0.08 µM)	relative viability ([1]; first compound 0.253 µM)	relative viability ([1]; first compound 0.8 µM)	relative viability ([1]; first compound 2.53 µM)	relative viability ([1]; first compound 8 µM)	relative viability (Veliparib + Tozasertib; first compound 0.06325 µM)	relative viability (Veliparib + Tozasertib; first compound 0.2 µM)	relative viability (Veliparib + Tozasertib; first compound 0.6325 µM)	relative viability (Veliparib + Tozasertib; first compound 2 µM)	relative viability ([2]; first compound 0.08 µM)	relative viability ([2]; first compound 0.253 µM)	relative viability ([2]; first compound 0.8 µM)	relative viability ([2]; first compound 2.53 µM)	relative viability ([2]; first compound 8 µM)	relative viability (Veliparib + Vorinostat; first compound 0.02 µM)	relative viability (Veliparib + Vorinostat; first compound 0.06325 µM)	relative viability (Veliparib + Vorinostat; first compound 0.2 µM)	relative viability (Veliparib + Vorinostat; first compound 0.6325 µM)	relative viability (Veliparib + Vorinostat; first compound 2 µM)	relative viability (Veliparib + Tozasertib; first compound 0.02 µM)
LC-2-ad	0.33	0.531	0.467	0.408	0.397	0.456	0.486	0.417	0.445	0.853	0.871	0.81	0.773	0.816	0.434	0.656	0.717	0.655	0.788	–
LOU-NH91	0.693	0.738	0.752	0.763	0.704	0.684	0.729	0.584	0.746	–	0.828	0.831	0.851	0.824	0.846	0.842	0.919	0.822	0.945	0.647
NCI-H1623	–	–	–	–	–	0.439	0.428	0.461	0.444	–	–	–	–	–	–	–	–	–	–	–
NCI-H727	0.578	0.945	0.98	0.71	0.592	0.648	0.573	0.495	0.654	0.813	0.866	0.792	0.705	0.909	1.11	0.948	1.1	1.14	1.04	0.672
NCI-H2347	0.666	0.7	0.856	0.672	0.655	0.501	0.492	0.553	0.541	0.612	0.691	0.681	0.61	0.577	0.716	0.545	0.561	0.616	0.637	0.55
NCI-H1993	0.698	0.919	0.803	0.901	0.881	0.583	0.671	0.627	0.598	0.602	0.599	0.526	0.675	0.613	–	0.775	0.966	0.804	0.688	0.612
HCC-827	0.87	0.968	0.898	0.961	0.878	0.443	0.434	0.376	0.398	0.292	0.271	0.356	0.287	0.308	0.764	0.834	0.793	0.671	0.746	0.436
NCI-H1975	0.915	1.04	0.955	0.948	0.871	0.729	0.775	0.699	0.723	0.349	0.364	0.443	0.456	0.388	0.771	0.688	0.698	0.639	0.659	0.932
NCI-H1793	–	–	–	–	–	0.349	0.391	0.371	0.41	–	0.678	0.592	0.662	0.286	0.654	0.697	0.58	0.807	0.722	0.364
NCI-H1651	0.853	0.928	0.859	0.82	0.826	0.654	0.646	0.604	0.545	0.584	0.52	0.616	0.566	0.579	0.557	0.551	0.513	0.464	0.504	0.864
NCI-H1755	0.789	0.852	0.858	0.928	0.879	0.514	0.569	0.571	0.552	0.632	0.737	0.64	0.743	0.683	0.758	0.774	0.725	0.723	0.714	0.557
LCLC-103H	1.1	0.94	1.15	0.984	1.02	0.339	0.463	0.443	0.485	0.731	0.812	0.761	0.779	0.681	0.846	0.726	0.819	0.749	0.77	0.528
NCI-H1915	0.777	0.892	0.935	0.905	0.857	0.426	0.413	0.409	0.394	0.239	0.284	0.259	0.275	0.262	0.499	0.465	0.396	0.388	0.426	0.402
HOP-62	0.826	0.833	1.01	1.01	0.959	0.382	0.419	0.328	0.39	0.173	0.217	0.216	0.27	0.244	0.557	0.527	0.593	0.539	0.68	0.327
HARA	0.194	1.1	0.99	1.09	0.951	0.117	0.117	0.0991	0.129	–	0.493	0.6	0.587	0.534	–	0.492	0.521	0.529	0.565	0.119
NCI-H520	0.321	0.834	0.776	0.723	0.736	0.488	0.439	0.47	0.503	0.517	0.481	0.484	0.495	0.551	0.769	0.62	0.612	0.727	0.773	0.337
NCI-H1395	–	–	–	–	–	0.787	0.754	0.656	0.706	–	0.701	0.758	0.842	0.618	0.432	0.485	0.648	0.638	0.499	0.684
NCI-H1792	0.969	0.905	1.01	0.918	0.697	–	–	–	–	0.523	0.619	0.479	0.469	0.458	–	–	–	–	–	–
EKVX	0.767	0.762	1.16	0.891	0.934	0.362	0.426	0.375	0.37	–	0.327	0.378	0.372	0.415	–	0.745	0.789	0.626	0.66	0.333
CAL-12T	0.474	0.616	0.702	0.686	0.542	0.376	0.327	0.318	0.369	–	–	–	–	–	0.695	0.834	0.729	0.589	0.886	0.317
SW 900	–	–	–	–	–	–	0.636	0.533	0.586	0.441	0.403	0.446	0.423	0.411	–	0.452	0.472	0.606	0.463	–

Cell Line	relative viability ([1]; first compound 0.08 µM)	relative viability ([1]; first compound 0.253 µM)	relative viability ([1]; first compound 0.8 µM)	relative viability ([1]; first compound 2.53 µM)	relative viability ([1]; first compound 8 µM)	relative viability (Veliparib + Tozasertib; first compound 0.06325 µM)	relative viability (Veliparib + Tozasertib; first compound 0.2 µM)	relative viability (Veliparib + Tozasertib; first compound 0.6325 µM)	relative viability (Veliparib + Tozasertib; first compound 2 µM)	relative viability ([2]; first compound 0.08 µM)	relative viability ([2]; first compound 0.253 µM)	relative viability ([2]; first compound 0.8 µM)	relative viability ([2]; first compound 2.53 µM)	relative viability ([2]; first compound 8 µM)	relative viability (Veliparib + Vorinostat; first compound 0.02 µM)	relative viability (Veliparib + Vorinostat; first compound 0.06325 µM)	relative viability (Veliparib + Vorinostat; first compound 0.2 µM)	relative viability (Veliparib + Vorinostat; first compound 0.6325 µM)	relative viability (Veliparib + Vorinostat; first compound 2 µM)	relative viability (Veliparib + Tozasertib; first compound 0.02 µM)
NCI-H1734	–	0.678	0.683	0.6	0.652	0.262	0.284	0.268	0.269	–	0.507	0.527	0.534	0.48	–	0.772	0.796	0.785	0.788	0.309
NCI-H522	–	–	–	–	–	0.579	0.508	0.598	0.545	–	0.649	0.606	0.63	0.765	0.832	0.825	0.736	0.84	0.979	0.628
A549	–	0.767	0.855	0.617	0.63	–	–	–	–	0.187	0.264	0.286	0.235	0.374	–	–	–	–	–	–
BEN	0.756	0.814	0.894	0.869	0.851	0.558	0.524	0.477	0.481	0.677	0.726	0.702	0.664	0.618	0.544	0.615	0.62	0.614	0.593	0.456
NCI-H2126	1.02	1.08	1.04	1.03	1.06	0.784	0.842	0.819	0.849	0.574	0.535	0.578	0.585	0.621	0.811	0.777	0.893	0.785	0.803	0.821
NCI-H1563	0.718	0.847	0.957	0.921	0.943	–	–	–	–	–	–	–	–	–	–	–	–	–	–	–
NCI-H2023	0.625	0.586	0.728	0.652	0.59	0.376	0.342	0.431	0.367	0.201	0.234	0.272	0.244	0.173	–	0.536	0.581	0.472	0.48	0.518
NCI-H1437	0.661	0.961	0.993	0.989	0.939	0.438	0.43	0.406	0.399	0.558	0.608	0.547	0.576	0.606	0.886	0.746	0.798	0.887	0.813	0.384
NCI-H322M	–	0.816	0.98	0.851	0.793	0.425	0.416	0.499	0.422	–	–	0.716	0.66	0.69	–	0.873	0.899	0.976	0.717	–
COR-L23	0.499	0.77	0.503	0.574	0.632	0.249	0.257	0.216	0.172	0.378	0.465	0.456	0.407	0.357	0.604	0.353	0.408	0.445	0.354	0.229
NCI-H2009	1.02	0.993	0.995	0.967	1.06	0.753	0.741	0.745	0.854	0.331	0.352	0.37	0.36	0.365	0.771	0.65	0.709	0.708	0.795	0.798
NCI-H1355	0.913	1.2	1.02	1.12	0.977	0.534	0.559	0.507	0.539	0.326	0.357	0.347	0.403	0.311	0.44	0.528	0.638	0.626	0.596	–
EBC-1	–	0.183	0.201	0.179	0.181	–	–	–	–	–	–	–	–	–	–	–	–	–	–	–
IA-LM	0.618	0.806	0.834	1.02	0.694	–	–	–	–	–	–	–	–	–	0.925	0.906	0.888	0.789	0.969	–
NCI-H1648	–	–	–	–	–	0.469	0.383	0.405	0.363	0.435	0.553	0.554	0.539	0.46	0.481	–	–	0.572	0.424	0.723
NCI-H2228	0.45	0.549	0.535	0.492	0.423	0.318	0.352	0.176	0.353	–	–	–	–	–	0.585	0.734	0.585	0.455	0.469	0.31
NCI-H1703	0.158	0.552	0.619	0.637	0.72	–	–	–	–	–	–	–	–	–	–	–	–	–	–	–
NCI-H2342	–	–	–	–	–	0.573	0.421	0.504	0.508	0.76	0.733	0.707	0.799	0.769	0.787	0.718	0.732	0.714	0.703	0.498
NCI-H1299	0.947	0.978	0.967	0.943	0.959	–	–	–	–	–	–	–	–	–	–	–	–	–	–	–
Calu-6	0.433	0.759	0.773	0.894	0.71	–	–	–	–	–	–	–	–	–	–	–	–	–	–	–

— the supplement of paper PMC10307832
